Measurements reported in US7399871B2, “Crystal forms of (S)-(+)-N,N-dimethyl-3-(1-naphthalenyloxy)-3-(2-thienyl)propanamine oxalate and the preparation thereof” (Teva Pharmaceutical Industries Ltd., priority 2005, dated 2008).

Experiment: Storage stability of DNT-Oxal crystal forms (polymorphic form by XRD)
Format: physicochemical
Conditions: stored at room temperature for 11 months; for Crystal form after the storage: crystal form before vs after the storage, oxalate
Method: Crystal forms of DNT-Oxal were stored at room temperature for 11 months. […] The forms of DNT-Oxal were identified using a Scintag X-ray powder diffractometer model X'TRA with a Cu-tube solid state detector. The sample holder was a round standard aluminum sample holder with rough zero background quartz plate with a cavity having a diameter of 25 mm and a depth of 0.5 mm. The scanning parameters were as follows: a range of 2° to 40° 2θ; a continuous scan mode, and a step size of 0.05° at a rate of 3°/minute.

| SMILES | Polymorphic stability on storage | Crystal form after the storage |
| --- | --- | --- |
| CN(C)CC[C@H](Oc1cccc2ccccc12)c1cccs1.O=C(O)C(=O)O [Form II, (S)-(+)-N,N-Dimethyl-3-(1-naphthalenyloxy)-3-(2-thienyl)propanamine oxalate] | polymorphically stable | Form II |
| CN(C)CC[C@H](Oc1cccc2ccccc12)c1cccs1.O=C(O)C(=O)O [Form III, (S)-(+)-N,N-Dimethyl-3-(1-naphthalenyloxy)-3-(2-thienyl)propanamine oxalate] | polymorphically stable | Form III |
